Legend:
[1] = molecular target: human 11b-hsd-1 (Homo sapiens, UniProt P28845); assay: Inhibition constant Ki of human 11b-hsd-1 (3H-cortisone to 3H-cortisol conversion, HPLC); format: biochemical; conditions: for inhibition at 0.1 µM: 0.1 μM compound; for Ki: apparent Ki, read-out: Ki app
[2] = system: normal subjects; conditions: ingestion; cited from earlier work
[3] = system: healthy human volunteers; conditions: healthy human volunteers treated with carbenoxolone; cited from earlier work
[4] = system: bone nodule formation; conditions: cited from earlier work

Sequence of human 11b-hsd-1 (P28845 whole entry): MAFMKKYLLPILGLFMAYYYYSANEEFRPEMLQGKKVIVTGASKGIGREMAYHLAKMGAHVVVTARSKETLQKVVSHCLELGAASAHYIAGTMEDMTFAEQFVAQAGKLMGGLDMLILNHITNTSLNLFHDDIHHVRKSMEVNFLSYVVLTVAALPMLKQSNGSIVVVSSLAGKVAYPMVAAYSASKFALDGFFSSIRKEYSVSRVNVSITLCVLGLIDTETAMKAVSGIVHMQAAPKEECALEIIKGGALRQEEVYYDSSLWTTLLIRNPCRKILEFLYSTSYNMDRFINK

Row | inhibition at 0.1 µM [1] [%] | Ki [1] [nM] | Structure (SMILES) | reduction of the intraocular pressure [2] [%] | hepatic insulin sensitivity [3] | negative effect of glucocorticoid on bone nodule formation [4]
1 | 100 | 2.1 | O=C(NC1C2CC3CC(C2)CC1C3)[C@@H]1C[C@H](Oc2cccc(C(F)(F)F)c2)CN1 (stereo partly shown) [Example 357] |  |  | 
2 | 100 | 4.5 | CCOc1cccc(O[C@@H]2CN[C@H](C(=O)NC3C4CC5CC(C4)CC3C5)C2)c1 (stereo partly shown) [Example 358] |  |  | 
3 | 80.7 | 44 | Cc1ncccc1O[C@@H]1CN[C@H](C(=O)NC2C3CC4CC(C3)CC2C4)C1 (stereo partly shown) [Example 359] |  |  | 
4 | 100 | 1.4 | O=C(NC1C2CC3CC(C2)CC1C3)[C@@H]1C[C@H](Oc2ccccc2Cl)CN1 (stereo partly shown) [Example 360] |  |  | 
5 | 100 | 1.9 | CCOc1ccccc1O[C@@H]1CN[C@H](C(=O)NC2C3CC4CC(C3)CC2C4)C1 (stereo partly shown) [Example 361] |  |  | 
6 | 100 | 1.1 | O=C(NC1C2CC3CC(C2)CC1C3)[C@@H]1C[C@H](Oc2cc(F)c(F)c(F)c2)CN1 (stereo partly shown) [Example 362] |  |  | 
7 | 100 | 1 | O=C(NC1C2CC3CC(C2)CC1C3)[C@@H]1C[C@H](Oc2c(F)cc(F)cc2F)CN1 (stereo partly shown) [Example 363] |  |  | 
8 | 100 | 4.6 | CC(C)Oc1ccccc1O[C@@H]1CN[C@H](C(=O)NC2C3CC4CC(C3)CC2C4)C1 (stereo partly shown) [Example 364] |  |  | 
9 | 100 | 1 | O=C(NC1C2CC3CC(C2)CC1C3)[C@@H]1C[C@H](Oc2ccc(Cl)c(F)c2)CN1 (stereo partly shown) [Example 365] |  |  | 
10 | 94.9 | 15 | O=C(NC1C2CC3CC(C2)CC1C3)[C@H]1NCC[C@@H]1CC1CCCCC1 (stereo partly shown) [Example 366] |  |  | 
11 | 93.5 | 7.5 | O=C(NC1C2CC3CC(C2)CC1C3)[C@H]1NCC[C@@H]1c1ccc(Cl)cc1 (stereo partly shown) [Example 367] |  |  | 
12 | 96.4 | 6.8 | O=C(NC1C2CC3CC(C2)CC1C3)[C@H]1NCC[C@@H]1Cc1ccc(F)cc1 (stereo partly shown) [Example 368] |  |  | 
13 | 100 | 6.6 | O=C(NC1C2CC3CC(C2)CC1C3)[C@H]1NCC[C@@H]1Cc1ccccc1 (stereo partly shown) [Example 369] |  |  | 
14 | 88.7 | 10 | O=C(NC1CCCCC1)[C@@H]1C[C@H](Oc2ccc(Cl)cc2)CN1 [Example 370] |  |  | 
15 | 86.2 |  | O=C(NC1CCCCC1)[C@@H]1C[C@H](Oc2cc(F)ccc2F)CN1 [Example 371] |  |  | 
16 | 97.4 |  | O=C(NC1CCCCC1)[C@@H]1C[C@H](Oc2c(F)cc(F)cc2F)CN1 [Example 372] |  |  | 
17 | 91.8 |  | O=C(NC1CCCCC1)[C@@H]1C[C@H](Oc2ccc(Cl)c(F)c2)CN1 [Example 373] |  |  | 
18 |  |  | CC1(C)[C@@H](OC(=O)CCC(=O)O)CC[C@]2(C)[C@H]3C(=O)C=C4[C@@H]5C[C@@](C)(C(=O)O)CC[C@]5(C)CC[C@@]4(C)[C@]3(C)CC[C@@H]12 [carbenoxolone] | 20 | improved | blocked
